# Measurements published in US20260317325A1, “AMORPHOUS SUBSTANCE AND CRYSTAL OF DIOXOPIPERIDINE COMPOUND OR PHARMACEUTICALLY ACCEPTABLE SALT THEREOF, PREPARATION METHOD, AND USE” (JIANGSU HENGRUI PHARMACEUTICALS CO., LTD., priority 2023, published 2026).
# Counter-ions that a name gives are not always drawn. Like-named read-outs stand apart in the source and are kept apart here.
# Assays:
# [1] = Experimental: Long-term/accelerated stability study: Samples of the free-state form were sealed in aluminum foil bags and left to stand under 25° C./60% RH and 40° C./75% RH conditions to study its stability.
# Long-term/accelerated stability of salt forms: Samples were sealed in aluminum foil bags and left to stand under 25° C./60% RH and 40° C./75% RH conditions to study their stability.
# Remark: listed apart in the source
# [2] = high-temperature and high-humidity conditions
# Experimental: Influencing factor stability study: Samples of the free-state form were taken, spread in open containers, and left to stand under high-temperature (40° C. and 60° C.) and high-humidity (RH 75% and RH 92.5%) conditions for 30 days to study its stability.
# Influencing factor stability study of salt forms: Samples of the salt forms were taken, spread in open containers, and left to stand under high-temperature (40° C. and 60° C.) and high-humidity (RH 75%) conditions for 30 days to study their stability.
# [3] = long-term accelerated conditions for 6 months
compound,measurement,setting,value
C[C@H]1CC2(CCN(c3ccc(C(=O)N4CCC(CN5CCN(c6cccc(N[C@H]7CCC(=O)NC7=O)c6)CC5)CC4)cc3F)CC2)CN1c1ccc(C#N)c(Cl)c1 [Amorphous form of maleate],stability (in words),[1]; long-term conditions for 6 months,good chemical and physical stability
C[C@H]1CC2(CCN(c3ccc(C(=O)N4CCC(CN5CCN(c6cccc(N[C@H]7CCC(=O)NC7=O)c6)CC5)CC4)cc3F)CC2)CN1c1ccc(C#N)c(Cl)c1 [Crystal form B of succinate],stability (in words),[1]; [3],good chemical and physical stability
C[C@H]1CC2(CCN(c3ccc(C(=O)N4CCC(CN5CCN(c6cccc(N[C@H]7CCC(=O)NC7=O)c6)CC5)CC4)cc3F)CC2)CN1c1ccc(C#N)c(Cl)c1 [crystal form A of D-mandelate],stability (in words),"[1]; long-term accelerated conditions for 6 months, listed as crystal form A of mandelate",good chemical and physical stability
same,crystal form before and after DVS testing,XRPD,the crystal form did not change before and after DVS testing
same,desorption versus adsorption process,humidity 0% to 95% RH,the desorption process of the sample overlapped with its adsorption process
C[C@H]1CC2(CCN(c3ccc(C(=O)N4CCC(CN5CCN(c6cccc(N[C@H]7CCC(=O)NC7=O)c6)CC5)CC4)cc3F)CC2)CN1c1ccc(C#N)c(Cl)c1 [free-state amorphous form],stability (in words),[1]; [3],good physical and chemical stability
same,stability (in words),[2],good chemical stability
